Laboratory results reported in ChEMBL document CHEMBL4145521, “Regioselective synthesis of 3,4-diaryl-5-unsubstituted isoxazoles, analogues of natural cytostatic combretastatin A4” (Eur J Med Chem, 2018).

Key:
Assay type in all cases: functional
IGROV-1 = assay: Cytotoxicity against human IGROV1 cells assessed as cell growth at 0.1 uM incubated for 48 hrs by sulforhodamine B assay relative to control; settings: IGROV-1, 48 h, read-out: Activity
OVCAR-5 [1] = assay: Cytotoxicity against human OVCAR5 cells assessed as cell growth at 1 uM incubated for 48 hrs by sulforhodamine B assay relative to control; settings: OVCAR-5, 48 h, read-out: Activity
SNB-19 = assay: Cytotoxicity against human SNB19 cells assessed as cell growth at 1 uM incubated for 48 hrs by sulforhodamine B assay relative to control; settings: SNB-19, 48 h, read-out: Activity
MDA-MB-231 [2] = assay: Cytotoxicity against human MDA-MB-231 cells incubated for 48 hrs by sulforhodamine B assay; settings: MDA-MB-231, 48 h
MDA-MB-468 [3] = assay: Cytotoxicity against human MDA-MB-468 cells assessed as cell growth at 100 uM incubated for 48 hrs by sulforhodamine B assay relative to control; settings: MDA-MB-468, 48 h, read-out: Activity
TK-10 = assay: Cytotoxicity against human TK10 cells assessed as cell growth at 1 uM incubated for 48 hrs by sulforhodamine B assay relative to control; settings: TK-10, 48 h, read-out: Activity
LOX IMVI = assay: Cytotoxicity against human LOXIMVI cells assessed as cell growth at 1 uM incubated for 48 hrs by sulforhodamine B assay relative to control; settings: read-out: Activity
HL-60(TB) = assay: Cytotoxicity against human HL-60(TB) cells assessed as cell growth at 100 uM incubated for 48 hrs by sulforhodamine B assay relative to control; settings: HL-60, 48 h, read-out: Activity
KM12 [4] = assay: Cytotoxicity against human KM12 cells assessed as cell growth at 0.01 uM incubated for 48 hrs by sulforhodamine B assay relative to control; settings: KM12, 48 h, read-out: Activity
OVCAR-5 [5] = assay: Cytotoxicity against human OVCAR5 cells assessed as cell growth at 0.1 uM incubated for 48 hrs by sulforhodamine B assay relative to control; settings: OVCAR-5, 48 h, read-out: Activity
ACHN [6] = assay: Cytotoxicity against human ACHN cells incubated for 48 hrs by sulforhodamine B assay
HOP-62 = assay: Cytotoxicity against human HOP62 cells incubated for 48 hrs by sulforhodamine B assay; settings: HOP-62, 48 h
SK-MEL-28 = assay: Cytotoxicity against human SK-MEL-28 cells assessed as cell growth at 10 uM incubated for 48 hrs by sulforhodamine B assay relative to control; settings: SK-MEL-28, 48 h, read-out: Activity
RPMI-8226 = assay: Cytotoxicity against human RPMI8226 cells incubated for 48 hrs by sulforhodamine B assay; settings: RPMI-8226, 48 h
HCT-116 = assay: Cytotoxicity against human HCT116 cells assessed as cell growth at 10 uM incubated for 48 hrs by sulforhodamine B assay relative to control; settings: HCT-116, 48 h, read-out: Activity
MDA-MB-468 [7] = assay: Cytotoxicity against human MDA-MB-468 cells assessed as cell growth at 0.1 uM incubated for 48 hrs by sulforhodamine B assay relative to control; settings: MDA-MB-468, 48 h, read-out: Activity
SK-MEL-2 = assay: Cytotoxicity against human SK-MEL-2 cells assessed as cell growth at 100 uM incubated for 48 hrs by sulforhodamine B assay relative to control; settings: SK-MEL-2, 48 h, read-out: Activity
NCI-H322M = assay: Cytotoxicity against human NCI-H322M cells assessed as cell growth at 0.1 uM incubated for 48 hrs by sulforhodamine B assay relative to control; settings: read-out: Activity
HCC 2998 [8] = assay: Cytotoxicity against human HCC2998 cells assessed as cell growth at 100 uM incubated for 48 hrs by sulforhodamine B assay relative to control; settings: HCC 2998, 48 h, read-out: Activity
SR = assay: Cytotoxicity against human SR cells incubated for 48 hrs by sulforhodamine B assay
HOP-92 = assay: Cytotoxicity against human HOP92 cells incubated for 48 hrs by sulforhodamine B assay; settings: HOP-92, 48 h
COLO 205 [9] = assay: Cytotoxicity against human COLO205 cells assessed as cell growth at 0.01 uM incubated for 48 hrs by sulforhodamine B assay relative to control; settings: COLO 205, 48 h, read-out: Activity
ACHN [10] = assay: Cytotoxicity against human ACHN cells assessed as cell growth at 100 uM incubated for 48 hrs by sulforhodamine B assay relative to control; settings: read-out: Activity
HCC 2998 [11] = assay: Cytotoxicity against human HCC2998 cells assessed as cell growth at 10 uM incubated for 48 hrs by sulforhodamine B assay relative to control; settings: HCC 2998, 48 h, read-out: Activity
MDA-MB-231 [12] = assay: Cytotoxicity against human MDA-MB-231 cells assessed as cell growth at 10 uM incubated for 48 hrs by sulforhodamine B assay relative to control; settings: MDA-MB-231, 48 h, read-out: Activity
BT-549 = assay: Cytotoxicity against human BT549 cells assessed as cell growth at 1 uM incubated for 48 hrs by sulforhodamine B assay relative to control; settings: BT-549, 48 h, read-out: Activity
COLO 205 [13] = assay: Cytotoxicity against human COLO205 cells assessed as cell growth at 10 uM incubated for 48 hrs by sulforhodamine B assay relative to control; settings: COLO 205, 48 h, read-out: Activity
KM12 [14] = assay: Cytotoxicity against human KM12 cells incubated for 48 hrs by sulforhodamine B assay; settings: KM12, 48 h
NCI/ADR-RES = assay: Cytotoxicity against human NCI/ADR-RES cells assessed as cell growth at 0.1 uM incubated for 48 hrs by sulforhodamine B assay relative to control; settings: read-out: Activity
ACHN [15] = assay: Cytotoxicity against human ACHN cells assessed as cell growth at 10 uM incubated for 48 hrs by sulforhodamine B assay relative to control; settings: read-out: Activity
[16] = read-out: LC50 (the source's name)
[17] = read-out: pLC50 (the source's name) (converted)

## COc1ccc(-c2nocc2-c2cc(OC)c(OC)c(OC)c2)cc1
IGROV-1
  growth at 0.1 µM: 54%
OVCAR-5 [1]
  growth at 1 µM: 53%
SNB-19
  growth at 1 µM: 36%
MDA-MB-231 [2]; read-out: GI50
  GI50: 0.45 µM
MDA-MB-231 [2]; [16]
  CC50: > 100 µM
MDA-MB-231 [2]; read-out: TGI
  TGI: 34.2 µM
MDA-MB-231 [2]; read-out: pGI50 (converted)
  GI50: 0.447 µM
MDA-MB-231 [2]; [17]
  CC50: > 100 µM
MDA-MB-231 [2]; read-out: pTGI (converted)
  TGI: 33.9 µM
MDA-MB-468 [3]
  growth at 100 µM: -19%
TK-10
  growth at 1 µM: 21%
LOX IMVI
  growth at 1 µM: 43%
HL-60(TB)
  growth at 100 µM: -15%
KM12 [4]
  growth at 0.01 µM: 92%
OVCAR-5 [5]
  growth at 0.1 µM: 86%
ACHN [6]; read-out: GI50
  GI50: 1.19 µM
ACHN [6]; read-out: LC50
  LC50 (concentration killing 50% of cells): > 100 µM
ACHN [6]; read-out: TGI
  TGI: 49.4 µM
ACHN [6]; read-out: pGI50 (converted)
  GI50: 1.2 µM
ACHN [6]; read-out: pLC50 (converted)
  LC50 (concentration killing 50% of cells): > 100 µM
ACHN [6]; read-out: pTGI (converted)
  TGI: 49 µM
HOP-62; read-out: GI50
  GI50: 0.259 µM
HOP-62; read-out: LC50
  LC50: > 100 µM
HOP-62; read-out: TGI
  TGI: > 100 µM
HOP-62; read-out: pGI50 (converted)
  GI50: 0.257 µM
HOP-62; read-out: pLC50 (converted)
  LC50: > 100 µM
HOP-62; read-out: pTGI
  TGI: > 100 µM
SK-MEL-28
  growth at 10 µM: 46%
RPMI-8226; read-out: GI50
  GI50: 0.44 µM
RPMI-8226; [16]
  CC50: > 100 µM
RPMI-8226; read-out: TGI
  TGI: 30.5 µM
RPMI-8226; read-out: pGI50 (converted)
  GI50: 0.437 µM
RPMI-8226; [17]
  CC50: > 100 µM
RPMI-8226; read-out: pTGI (converted)
  TGI: 30.2 µM
HCT-116
  growth at 10 µM: 6%
MDA-MB-468 [7]
  growth at 0.1 µM: 55%
SK-MEL-2
  growth at 100 µM: -8%
NCI-H322M
  growth at 0.1 µM: 76%
HCC 2998 [8]
  growth at 100 µM: -47%
SR; read-out: GI50
  GI50: 0.0717 µM
SR; [16]
  CC50: > 100 µM
SR; read-out: TGI
  TGI: 58.3 µM
SR; read-out: pGI50 (converted)
  GI50: 0.0724 µM
SR; [17]
  CC50: > 100 µM
SR; read-out: pTGI (converted)
  TGI: 58.9 µM
HOP-92; read-out: GI50
  GI50: 0.678 µM
HOP-92; read-out: LC50
  LC50 (50% lethal concentration): > 100 µM
HOP-92; read-out: TGI
  TGI: 50.2 µM
HOP-92; read-out: pGI50 (converted)
  GI50: 0.676 µM
HOP-92; read-out: pLC50 (converted)
  LC50 (50% lethal concentration): > 100 µM
HOP-92; read-out: pTGI (converted)
  TGI: 50.1 µM
COLO 205 [9]
  growth at 0.01 µM: 91%
ACHN [10]
  growth at 100 µM: -13%
HCC 2998 [11]
  growth at 10 µM: 25%
MDA-MB-231 [12]
  growth at 10 µM: 17%
BT-549
  growth at 1 µM: 33%
COLO 205 [13]
  growth at 10 µM: -27%
KM12 [14]; read-out: GI50
  GI50: 0.0433 µM
KM12 [14]; [16]
  CC50: > 100 µM
KM12 [14]; read-out: TGI
  TGI: 13.1 µM
KM12 [14]; read-out: pGI50 (converted)
  GI50: 0.0437 µM
KM12 [14]; [17]
  CC50: > 100 µM
KM12 [14]; read-out: pTGI (converted)
  TGI: 13.2 µM
NCI/ADR-RES
  growth at 0.1 µM: 34%
ACHN [15]
  growth at 10 µM: 29%
